Measurements as given in US20230226099A1, “INHALABLE FORMULATION” (AALTO UNIVERSITY FOUNDATION SR, priority 2020, published 2023).

Key:
[1] = system: MDR-Acinetobacter baumannii; test: Antibiotic resistance profile of strain; assay type: cell-based; conditions: strain 5542
Pseudomonas aeruginosa = test: Antibiotic resistance profile of strains; assay type: cell-based
[2] = system: Pseudomonas aeruginosa PAO1; test: Coadministration with antibiotics, development of resistance (MIC over days); assay type: cell-based
Description: MIC values were categorized in three groups according to the Clinical and Laboratory Standards Institute: susceptible, intermediate susceptible and resistant.

[3] = system: lipopolysaccharides of P. aeruginosa, strain PA10; test: Analytical ultracentrifuge sedimentation velocity analysis of interaction with LPS; assay type: binding, Pseudomonas aeruginosa; conditions: 135 μM P[5]a and 35 μM LPS, UV absorbance at 305 nm
Procedure: A clear initial peak of unbound P[5]a can be observer at low molecular weight (2260 Da), followed by a long and polydisperse collection of peaks, ranging from low molecular weight (S), to very high molecular weight (60.000 kDa) See Example 2.
The interaction of P[5]a with lipopolysaccharides of P. aeruginosa, strain PA10 was measured using AUC.
Analytical ultracentrifugation (AUC) is based on sedimentation of colloidal particles in a centrifugal field. During centrifugation particles move toward the bot-tom of the measuring cell. This movement leads to redistribution of particles along the measuring cell, which in turn can be expressed as a change in concentration along the measuring cell. The absorbance detector was used to follow the changes caused by centrifugation (absorbance is proportional to concentration). In simple words, in AUC the inventors measure how concentration changes during centrifugation, so they collect concentration profiles. Interaction between particles can be measured as a result of changes in the sedimentation profiles. […]
The spectra of both P[5]a and LPS from P. aeruginosa were first analysed separately (see FIGS. 11a and b). […] Because only the sedimentation of P[5]a was detected at 305 nm, the inventors were certain that any changes observed in the sedimentation profile, come from interactions between P[5]a and other particles. […]

[4] = Lung neutrophil infiltration and inflammation score after i.v. or i.n. administration; assay type: in vivo; conditions: BALB/c mice, different dosages, 24 hours
Description: Two different administration methods were use, intravenously (i.v.) or intranasally (i.n.). Pathological changes were graded according to severity (P=Present; 1=Minimal; 2=Mild; 3=Moderate).

[5] = system: MDR resistant clinical isolates; test: Coadministration with antibiotics in MDR resistant clinical isolates; assay type: cell-based; conditions: Amikacin, Cefepime, Ceftazidime and Meropenem

Compound: NCC[C@H](O)C(=O)N[C@@H]1C[C@H](N)[C@@H](O[C@H]2O[C@H](CN)[C@@H](O)[C@H](O)[C@H]2O)[C@H](O)[C@H]1O[C@H]1O[C@H](CO)[C@@H](O)[C@H](N)[C@H]1O [Amikacin]
- Antibiotic resistance (category) [1]: Resistant to Amikacin, Amoxicillin-clavulanate, Ampicillin,
- Antibiotic resistance (category) (Pseudomonas aeruginosa; strain 2798 (ATCC 2798)): Susceptible
- Antibiotic resistance (value) (Pseudomonas aeruginosa; strain 5539): Susceptible to Amikacin 8 ug, intermediate to Cefepime 8 ug,
- Antibiotic resistance (value) (Pseudomonas aeruginosa; strain 5542, MDR): MDR Intermediate susceptible to amikacin 16 ug, resistant to
- Antibiotic resistance (value) (Pseudomonas aeruginosa; strain 5550, MDR): MDR Intermediate susceptible to amikacin 32 ug
- Antibiotic resistance (value) (Pseudomonas aeruginosa; strain 5834, MDR): MDR Intermediate susceptible to amikacin 16 ug, resistant to

Compound: CC1(C)S[C@@H]2[C@H](NC(=O)[C@H](N)c3ccccc3)C(=O)N2[C@H]1C(=O)O [Ampicillin]
- Antibiotic resistance (category) [1]: Resistant to Amikacin, Amoxicillin-clavulanate, Ampicillin,

Compound: CC[C@H]1OC(=O)[C@H](C)[C@@H](O[C@H]2C[C@@](C)(OC)[C@@H](O)[C@H](C)O2)[C@H](C)[C@@H](O[C@@H]2O[C@H](C)C[C@H](N(C)C)[C@H]2O)[C@](C)(O)C[C@@H](C)CN(C)[C@H](C)[C@@H](O)[C@]1(C)O [Azithromycin]
- Antibiotic resistance (category) [1]: Resistant to Amikacin, Amoxicillin-clavulanate, Ampicillin,

Compound: C[C@H]1[C@H](NC(=O)/C(=N\OC(C)(C)C(=O)O)c2csc(N)n2)C(=O)N1S(=O)(=O)O [Aztreonam]
- Antibiotic resistance (category) (Pseudomonas aeruginosa; strain 2798 (ATCC 2798)): Intermediate susceptible

Compound: CC1=C(C(=O)O)N2C(=O)[C@@H](NC(=O)[C@H](N)c3ccccc3)[C@H]2SC1 [Cefalexin]
- Antibiotic resistance (category) [1]: Resistant to Amikacin, Amoxicillin-clavulanate, Ampicillin,

Compound: CO/N=C(\C(=O)N[C@@H]1C(=O)N2C(C(=O)[O-])=C(C[N+]3(C)CCCC3)CS[C@H]12)c1csc(N)n1 [Cefepime]
- MIC ([2]; Pseudomonas aeruginosa, 96 h, PAO1, after four days, highest concentration of antibiotic included): 128 µg/mL

Compound: CC(C)(O/N=C(\C(=O)N[C@@H]1C(=O)N2C(C(=O)[O-])=C(C[n+]3ccccc3)CS[C@H]12)c1csc(N)n1)C(=O)O [Ceftazidime]
- Antibiotic resistance (value) (Pseudomonas aeruginosa; strain 5539): 8 µg
- Antibiotic resistance (value) (Pseudomonas aeruginosa; strain 5542, MDR): 32 µg
- Antibiotic resistance (value) (Pseudomonas aeruginosa; strain 5827, MDR): 64 µg
- Antibiotic resistance (value) (Pseudomonas aeruginosa; strain 5832, MDR): 16 µg
- Antibiotic resistance (value) (Pseudomonas aeruginosa; strain 5834, MDR): cefepime 64 ug, ceftazidime 64 ug and meropenem 64 ug

Compound: C[C@@H](O)[C@H]1C(=O)N2C(C(=O)O)=C(S[C@@H]3CN[C@H](C(=O)Nc4cccc(C(=O)O)c4)C3)[C@H](C)[C@H]12 [Ertapenem]
- Antibiotic resistance (category) [1]: Resistant to Amikacin, Amoxicillin-clavulanate, Ampicillin,

Compound: C[C@@H](O)[C@H]1C(=O)N2C(C(=O)O)=C(S[C@@H]3CN[C@H](C(=O)N(C)C)C3)[C@H](C)[C@H]12 [Meropenem]
- Antibiotic resistance (category) [1]: Resistant to Amikacin, Amoxicillin-clavulanate, Ampicillin,
- Antibiotic resistance (value) (Pseudomonas aeruginosa; strain 5539): 8 µg
- Antibiotic resistance (value) (Pseudomonas aeruginosa; strain 5542, MDR): 8 µg
- Antibiotic resistance (value) (Pseudomonas aeruginosa; strain 5827, MDR): 16 µg
- Antibiotic resistance (value) (Pseudomonas aeruginosa; strain 5832, MDR): 8 µg
- Antibiotic resistance (value) (Pseudomonas aeruginosa; strain 5834, MDR): cefepime 64 ug, ceftazidime 64 ug and meropenem 64 ug

Compound: C[N+](C)(C)CCOc1cc2c(OCC[N+](C)(C)C)cc1Cc1cc(OCC[N+](C)(C)C)c(cc1OCC[N+](C)(C)C)Cc1cc(OCC[N+](C)(C)C)c(cc1OCC[N+](C)(C)C)Cc1cc(OCC[N+](C)(C)C)c(cc1OCC[N+](C)(C)C)Cc1cc(OCC[N+](C)(C)C)c(cc1OCC[N+](C)(C)C)C2.[Br-].[Br-].[Br-].[Br-].[Br-].[Br-].[Br-].[Br-].[Br-].[Br-] [P[5]a, 4,9,14,19,24,26,28,30,32,34-Deca[2-(trimethylaminio)ethoxy]hexacyclo[21.2.2.2^3,6.2^8,11.2^13,16.2^18,21]pentatriaconta1(25),3,5,8,10, 13,15,18,20,23,26,28,30,32,34-pentadecaene 10bromide]
- interaction with LPS [3]: strong interaction
- tolerability (lung neutrophil infiltration and inflammation score) [4]: good tolerability
- penetration of coadministered antibiotics ([2]; PAO1): enhances the penetration
- development of resistance by the pathogen to the coadministered antibiotic ([2]; coadministration with Aztreonam, Cefepime, Meropenem and Tobramycin, PAO1): greatly slowed
- penetration and efficacy of coadministered antibiotics [5]: enhances the penetration and efficacy

Compound: Cc1cc(NS(=O)(=O)c2ccc(N)cc2)no1 [Sulfamethoxazole]
- Antibiotic resistance (category) [1]: Resistant to Amikacin, Amoxicillin-clavulanate, Ampicillin,

Compound: CN(C)c1cc(NC(=O)CNC(C)(C)C)c(O)c2c1C[C@H]1C[C@H]3[C@H](N(C)C)C(O)=C(C(N)=O)C(=O)[C@@]3(O)C(O)=C1C2=O [Tigecycline]
- Antibiotic resistance (category) [1]: Resistant to Amikacin, Amoxicillin-clavulanate, Ampicillin,

Compound: NC[C@H]1O[C@H](O[C@H]2[C@H](O)[C@@H](O[C@H]3O[C@H](CO)[C@@H](O)[C@H](N)[C@H]3O)[C@H](N)C[C@@H]2N)[C@H](N)C[C@@H]1O [Tobramycin]
- Antibiotic resistance (category) [1]: Resistant to Amikacin, Amoxicillin-clavulanate, Ampicillin,
- Antibiotic resistance (category) (Pseudomonas aeruginosa; strain 5539): resistant

Compound: CO/N=C(\C(=O)N[C@@H]1C(=O)N2C(C(=O)O)=C(COC(N)=O)CS[C@H]12)c1ccco1 [cefurixome]
- Antibiotic resistance (category) (Pseudomonas aeruginosa; strain 5539): resistant

Compound: O=C(O)c1cn(C2CC2)c2cc(N3CCNCC3)c(F)cc2c1=O [ciprofloxacin]
- Antibiotic resistance (category) (Pseudomonas aeruginosa; strain 5539): resistant
- Antibiotic resistance (category) (Pseudomonas aeruginosa; strain 5832, MDR): resistant

Compound: Amoxicillin-clavulanate
- Antibiotic resistance (category) [1]: Resistant to Amikacin, Amoxicillin-clavulanate, Ampicillin,

Compound: Colistin
- Antibiotic resistance (category) (Pseudomonas aeruginosa; strain 2798 (ATCC 2798)): Susceptible

Compound: Piperacillin-tazobactam
- Antibiotic resistance (category) [1]: Resistant to Amikacin, Amoxicillin-clavulanate, Ampicillin,
- Antibiotic resistance (category) (Pseudomonas aeruginosa; strain 5539): resistant
